Measurements published in patent US7795305B2, “CDDO-compounds and combination therapies thereof” (Board of Regents, The University of Texas System, priority 2000, dated 2010).
Counter-ions that a name gives are not always drawn. Numbered stars: 1 amine (or outer) side, 2 acyl side, 3 side chain; on linkers, the order of the positions; unused ones are H or OH. Bridge positions count the residues as written; N and C are the ends. Square brackets hold non-standard residues; d marks the D form. Peptide text beside a SMILES is read from it. I, II: the chains in the order shown. Actinocin(9to1) = Cc1c2oc3c(C)ccc(C(=O)[*:1])c3nc-2c(C(=O)[*:2])c(N)c1=O; NMeV = CN[C@H](C(=O)O)C(C)C; Sar = CNCC(=O)O

How the values were obtained:
[1] = cited from earlier work; for terminal half-life: plasma; for peak concentration in plasma: usual clinical doses
HL-60 cells [2] = test: Viable cell count of leukemic cells in suspension culture (Trypan blue); assay type: cell-based, human; conditions: Homo sapiens, HL-60, read-out: concentration required for 50% inhibition of HL-60 cells; PPARγ ligands compared to CDDO
Description: (§1) Suspension culture of leukemic cells. Leukemic cell lines were cultured at a density of 3.0×10^5 cells/mL, and AML mononuclear cells at 5×10^5 cells/mL in the presence or absence of indicated concentrations of CDDO-Me. Appropriate amounts of DMSO (final concentration<0.05%) was included as a control. For cytotoxicity studies, 1 μM ara-C was added to the cultures.
CDDO. […] The percentage of proliferating cells were analyzed by FCM.
CDDO-Me. […] Mechanism of growth inhibition was analyzed on cell cycle and apoptosis in HL-60 cells.

primary AML samples = test: Annexin V staining of primary AML samples exposed to PPARγ ligands; assay type: cell-based, human; conditions: 72 hrs; 15d-PGJ2 5 μM; BRL49653, L-805645, GW347845X 25 μM
Description: Annexin V staining. Cells were washed in phosphate-buffered saline (PBS) and resuspended in 100 μl of binding buffer containing Annexin V (Roche Diagnostic Corporation, Indianapolis, Ind.). Cells were analyzed by flow cytometry after the addition of propidium iodide (PI). Annexin V binds to those cells that express phosphatidylserine on the outer layer of the cell membrane, and PI stains the cellular DNA of those cells with a compromised cell membrane. This allows for live cells (unstained with either fluorochrome) to be discriminated from apoptotic cells (stained only with annexin V) and necrotic cells (stained with both annexin and PI).

HL-60 cells [3] = test: Differentiation by CD11b/CD14 flow cytometry; assay type: cell-based, human; conditions: 7 days
HL-60 cells [4] = test: Differentiation by CD11b/CD14 flow cytometry; assay type: cell-based, human
Description: Immunophenotyping. The PE-conjugated anti-CD11b, FITC-conjugated anti-CD14 monoclonal antibody (mAb) (Becton Dickinson) and PE-conjugated anti-CD95 mAb (PharMingen) were used at a 1/10 dilution.
Enhancement in cellular differentiation using combinations of CDDO with ATRA were tested. […] Cell differentiation was analyzed by flow cytometry (CD14/CD11b staining). […] These experiments were repeated. […]
Finally, the inventors examined if CDDO-Me combined with ATRA would enhance differentiation. […] […] Next, combined treatment with CDDO-Me and RXR-specific ligand were tested for potentiation of anti-leukemic effects.

HL-60 cells [5] = test: Cell cycle (S+G2M) with RXR-specific ligand; assay type: cell-based, human; conditions: 1 μM of LG-100268, combined treatment with CDDO-Me
Description: Cell kinetic and DNA fragmentation studies. The cell cycle kinetics was determined by staining cells with acridine orange for cellular DNA and RNA content followed by flow cytometeric analysis as described. Samples were measured in a FACScan flow cytometer (Becton Dickinson, San Jose, Calif.) using the 488-nm line of a […] argon laser and filter settings for green (530 nm) (DNA) and red (585 nm) (RNA) fluorescence. Ten thousand events were stored in list mode for analysis. The percentage of cells in the “sub G1 peak” defined the proportion of apoptotic cells in the tested populations. […] Cell-cycle kinetics was analyzed using ModFit software (Verity Software House, Inc., Topsham, Me.).
Finally, the inventors examined if CDDO-Me combined with ATRA would enhance differentiation. HL-60 cells were cultured with of 0.1 μM of CDDO-Me for 72 hrs, alone or in combination with 1 μM ATRA. […] At 48 hrs, 67.4% in CDDO-Me-treated cells and 63.5% in ATRA-treated cells were CD11b+ (compared with 40% in DMSO controls), while 85% of cells were positive when both compounds were given simultaneously. These studies were repeated 3 times and yielded essentially identical results. Next, combined treatment with CDDO-Me and RXR-specific ligand were tested for potentiation of anti-leukemic effects. […]

HL-60 cells [6] = test: CDDO-Me plus LG-100268 in HL-60 cells (Table 6); assay type: cell-based, human; set-up: unit not given here; conditions: 24 hrs
Description: Finally, the inventors examined if CDDO-Me combined with ATRA would enhance differentiation. HL-60 cells were cultured with of 0.1 μM of CDDO-Me for 72 hrs, alone or in combination with 1 μM ATRA. […] At 48 hrs, 67.4% in CDDO-Me-treated cells and 63.5% in ATRA-treated cells were CD11b+ (compared with 40% in DMSO controls), while 85% of cells were positive when both compounds were given simultaneously. These studies were repeated 3 times and yielded essentially identical results. Next, combined treatment with CDDO-Me and RXR-specific ligand were tested for potentiation of anti-leukemic effects. RXR-specific ligand LG-100268 (Ligand Pharmaceuticals) used at 10, 100 nm and 1 μM enhanced killing of HL-60 cells in a dose-dependent manner (Table 6).

[7] = cited from earlier work
[8] = cited from earlier work; remark: listed apart in the source
primary AML cells = test: Apoptosis in primary AML samples, subG1 DNA flow cytometry; assay type: cell-based, human; conditions: ara-C 1 μM, alone or combined
Description: Subjects. Samples of bone marrow or peripheral blood were obtained for in vitro studies from patients with newly diagnosed or recurrent AML with high (>70%) blast count and from patients with myeloid transformation of chronic myeloid leukemia (CML). Informed consent was obtained following institutional guidelines. Mononuclear cells were separated by Ficoll-Hypaque (Sigma Chemical Co) density-gradient centrifugation.
as §1
Cell kinetic and DNA fragmentation studies. The cell cycle kinetics was determined by staining cells with acridine orange for cellular DNA and RNA content followed by flow cytometeric analysis as described. […] Ten thousand events were stored in list mode for analysis. The percentage of cells in the “sub G1 peak” defined the proportion of apoptotic cells in the tested populations. […] Cell-cycle kinetics was analyzed using ModFit software (Verity Software House, Inc., Topsham, Me.). […]

## CC[C@]1(O)C[C@H]2CN(CCc3c([nH]c4ccccc34)[C@@](C(=O)OC)(c3cc4c(cc3OC)N(C=O)[C@H]3[C@@](O)(C(=O)OC)[C@H](OC(C)=O)[C@]5(CC)C=CCN6CC[C@]43[C@@H]65)C2)C1 [Vincristine]
[1]
  terminal half-life: about 24 hours
  peak concentration in plasma: approximately 0.4 mM

## CN(CCOc1ccc(CC2SC(=O)NC2=O)cc1)c1ccccn1 (centres unmarked) [BRL49653, rosiglitazone]
HL-60 cells [2]
  IC50: 25 to 50 µM
Primary AML samples
  annexin-V-positive cells: 7%
HL-60 cells [3]; 10 μM (15d-PGJ2 column head prints M)
  CD11b %: 38.9%
HL-60 cells [3]; 25 μM
  CD11b %: 48.5%

## N.N.[Cl][Pt][Cl] [Cisplatin]
[1]; in vivo
  oral absorption: not absorbed orally

## CC[C@]1(O)C[C@@H]2CN(CCc3c([nH]c4ccccc34)[C@@](C(=O)OC)(c3cc4c(cc3OC)N(C)[C@H]3[C@@](O)(C(=O)OC)[C@H](OC(C)=O)[C@]5(CC)C=CCN6CC[C@]43[C@@H]65)C2)C1 [Vinblastine]
[1]; in vivo
  fraction of dose excreted/recovered in the urine: Approximately 15%
  fraction recovered in the feces after biliary excretion: about 10%
[1]
  peak concentration in plasma: approximately 0.4 mM

## COc1cccc2c1C(=O)c1c(O)c3c(c(O)c1C2=O)C[C@@](O)(C(=O)CO)C[C@@H]3O[C@H]1C[C@H](N)[C@H](O)[C@H](C)O1 [Doxorubicin, 5,12-Naphthacenedione, (8s-cis)-10-[(3-amino-2,3,6-trideoxy-a-L-lyxo-hexopyranosyl)oxy]-7,8,9,10-tetrahydro-6,8,11-trihydroxy-8-(hydroxyacetyl)-1-methoxy-hydrochloride]
[1]; in vivo
  oral absorption: absorbed poorly
  elimination half-life: about 30 hr
  fraction of dose excreted/recovered in the urine: a few percent

## Cc1c2oc3c(C)ccc(C(=O)N[C@@H]4C(=O)N[C@H](C(C)C)C(=O)N5CCC[C@H]5C(=O)N(C)CC(=O)N(C)[C@@H](C(C)C)C(=O)O[C@@H]4C)c3nc-2c(C(=O)N[C@@H]2C(=O)N[C@H](C(C)C)C(=O)N3CCC[C@H]3C(=O)N(C)CC(=O)N(C)[C@@H](C(C)C)C(=O)O[C@@H]2C)c(N)c1=O [Actinomycin D] (I: T[dV]P[Sar][NMeV] / II: T[dV]P[Sar][NMeV]; ester I:1-I:C, II:1-II:C; linker I:N-II:N via Actinocin(9to1))
[1]; in vivo
  elimination half-life: about 36 hr
  fraction of dose excreted/recovered in the urine: 10%
  fraction secreted/excreted into the bile: Half of the dose

## Cc1cc2c(cc1C1(c3ccc(C(=O)O)cn3)CC1)C(C)(C)CCC2(C)C [LG-100268]
HL-60 cells [4]; CDDO 0, ligand 1 nM
  percentage of CD14 (+) live cells (FCM): 16.6%
HL-60 cells [4]; CDDO 0, ligand 10 nM
  percentage of CD14 (+) live cells (FCM): 9.6%
HL-60 cells [4]; CDDO 0, ligand 100 nM
  percentage of CD14 (+) live cells (FCM): 9.4%
HL-60 cells [5]
  percentage of cells in S+G2M decreased by: 50%
HL-60 cells [6]; CDDO-Me 0, LG-100268 10 nM
  Table 6 value: CDDO-Me-induced monocytic differentiation in HL-60 cells: 6.8
HL-60 cells [6]; CDDO-Me 0, LG-100268 100 nM
  Table 6 value: CDDO-Me-induced monocytic differentiation in HL-60 cells: 6.2
HL-60 cells [6]; CDDO-Me 0, LG-100268 1 μM
  Table 6 value: CDDO-Me-induced monocytic differentiation in HL-60 cells: 6.3

## Bleomycin
[1]; in vivo
  fraction of dose excreted/recovered in the urine: 60% to 70

## CC1=C(/C=C/C(C)=C/C=C/C(C)=C/C(=O)O)C(C)(C)CCC1 [ATRA, all-trans-retinoic acid, reference compound]
HL-60 cells [4]; 48 hrs, CDDO-Me 0.1 μM, ATRA 1 μM, alone or simultaneously (DMSO controls 40%)
  CD11b+ cells: 63.5%
HL-60 cells [4]; CDDO 0, ligand 1 nM
  percentage of CD14 (+) live cells (FCM): 4%
HL-60 cells [4]; CDDO 0, ligand 10 nM
  percentage of CD14 (+) live cells (FCM): 5.2%
HL-60 cells [4]; CDDO 0, ligand 100 nM
  percentage of CD14 (+) live cells (FCM): 4.4%
[7]; acute promyelocytic leukemia (Warrell et al., 1991)
  patients achieving complete remissions: over 90%

## CO[C@@]12[C@H](COC(N)=O)C3=C(C(=O)C(C)=C(N)C3=O)N1C[C@@H]1N[C@@H]12 [Mitomycin]
[1]; after 30 mg bolus injection
  time required to reduce the serum concentration by 50%: 17 min
[1]; in vivo
  fraction of dose excreted/recovered in the urine: Approximately 10%

## TRAIL: member of tumor necrosis factor family of cytokines
[8]; 250-500 μg (Gliniak et al, 1999)
  effect of chemotherapy in mice bearing human colon carcinoma tumors: synergistically enhanced effect of chemotherapy
[8]; daily injections of 200-1000 μg (14 days) (Walczak et al., 1999)
  survival of tumor-bearing mice: significantly increased survival

## O=C(O)CCCc1ccc(N(CCCl)CCCl)cc1 [Chlorambucil, 4-[bis(2-chlorethyl)amino] benzenebutanoic acid]
[1]; in vivo
  oral absorption: rapidly and completely absorbed
[1]
  terminal half-life: ~1.5 h

## N[C@@H](Cc1ccc(N(CCCl)CCCl)cc1)C(=O)O [Melphalan, 4-[bis(2-chloroethyl)amino]-L-phenylalanine]
[7]; multiple myeloma, oral administration
  patients with favorable response: about one third to one half

## CS(=O)(=O)OCCCCOS(C)(=O)=O [busulfan, 1,4-butanediol dimethanesulfonate]
[7]; previously untreated chronic myelogenous leukemia
  adults obtaining hematologic remission: Approximately 90%

## Nc1ccn([C@@H]2O[C@H](CO)[C@@H](O)[C@@H]2O)c(=O)n1 [ara-C, reference compound]
Primary AML cells; CDDO 1 μM, n=23 (DMSO control 27.7±3.7%)
  apoptosis in AML samples: 41.6±4.6%
Primary AML cells; CDDO-Me 1 μM, n=6 (DMSO control 24.9±7.4%)
  cell killing in AML samples: 39.8±8.2%

## O=NN(CCCl)C(=O)NC1CCCCC1 [Lomustine, 1-(2-chloro-ethyl)-3-cyclohexyl-1 nitrosourea]
[1]; oral radioactive lomustine 30 mg/m^2 to 100 mg/m^2
  radioactivity excreted as degradation products within 24 hours: about half of the radioactivity

## COc1cccc2c1C(=O)c1c(O)c3c(c(O)c1C2=O)C[C@@](O)(C(C)=O)C[C@@H]3O[C@H]1C[C@H](N)[C@H](O)[C@H](C)O1 [Daunorubicin, 5,12-Naphthacenedione, (8S-cis)-8-acetyl-10-[(3-amino-2,3,6-trideoxy-α-L-lyxo-hexanopyranosyl)oxy]-7,8,9,10-tetrahydro-6,8,11-trihydroxy-10-methoxy-, hydrochloride]
[1]; in vivo
  oral absorption: Oral absorption is poor
  elimination half-life: about 19 hr
  fraction secreted/excreted into the bile: ~40%

## COc1cccc2c1C(=O)c1c(O)c3c(c(O)c1C2=O)C[C@@](O)([C@H](C)O)C[C@@H]3O[C@H]1C[C@H](N)[C@H](O)[C@H](C)O1 [daunorubicinol]
[1]; in vivo
  elimination half-life: about 27 hr
